From PubChem BioAssay (NCI)
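Growth conditions: 96-well plates. Treatment: test compound, 48 hours, 5 concentrations. Analysis: linear interpolation between bracketing concentrations; unreached endpoints set to highest concentration. TGI denotes the concentration required for complete inhibition of growth.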

Test system: MDA-N
Assay: inhibition of tumour cell growth, NCI panel, 48 h

SMILES	TGI [µM]
NS(=O)(=O)c1ccc(N=Nc2nc3[nH]c(=O)[nH]c(=O)c3[nH]2)cc1	> 100
CC1=CC(C)C/C=C/C2C3OC3(C)C(C)C3C(Cc4c[nH]c5ccccc45)NC(=O)C23C(=O)C=CC(=O)C1O (centres undefined)	22.6
Cc1cc(C)n(C(=C(C(Cl)=C(Cl)Cl)[N+](=O)[O-])n2nc(C)cc2C)n1	13.8
C/C(=N\NC(=S)N1CCCCC1)c1nc2ncccc2[nH]1	47.9

Test system: MOLT-4 leukemia
Assay: inhibition of tumour cell growth, NCI panel, 48 h

SMILES	TGI [µM]
c1nc(OCC2CCCCC2)c2[nH]cnc2n1	> 100
Oc1cn(-c2ccc(Cl)cc2)nc1-c1nnc(-c2ccccc2)o1	19.9
COc1ccc(N2C(=O)/C(=C(\C)c3cc4ccccc4oc3=O)N=C2c2cc([N+](=O)[O-])ccc2Cl)cc1	> 100
O=C(O)CC(CC(=O)O)C(=O)O	> 100
CC(=O)N(C)c1ccc(Nc2cc(C)[nH]c3ccc4ncnc4c23)cc1	13.7
FC(F)(F)c1ccc(N=C/C=C(/Nc2ccc(C(F)(F)F)cc2)c2ccc(Cl)cc2)cc1	> 100
CCCCN(CCCC)CC(O)c1cc(-c2ccc(C(F)(F)F)cc2)nc(-c2ccc(C(F)(F)F)cc2)c1 (centres undefined)	> 100
CC(C)(C)[Si](OC1CC(n2cnc3c(N)ncnc32)OC1CO)(c1ccccc1)c1ccccc1 (centres undefined)	> 100
CC1=CC(C)C/C=C/C2C3OC3(C)C(C)C3C(Cc4c[nH]c5ccccc45)NC(=O)C23C(=O)C=CC(=O)C1O (centres undefined)	5.2
O=C(O)c1ccc(Nc2c3ccccc3nc3ccccc23)cc1	> 83.9
Cc1cc(C)n(C(=C(C(Cl)=C(Cl)Cl)[N+](=O)[O-])n2nc(C)cc2C)n1	5
COc1ccc(C2COc3cc(OC(C)=O)c(OC(C)=O)cc3C2)cc1 (centres undefined)	29.1
CCOc1cc2c(OCc3ccccc3)cc3c4cc(OC)c(OC)cc4c[n+](C)c3c2cc1OC	> 20.3
C/C(=N\NC(=S)N1CCCCC1)c1nc2ncccc2[nH]1	19.9

Test system: NCI-H522 lung
Assay: inhibition of tumour cell growth, NCI panel, 48 h

SMILES	TGI [µM]
c1nc(OCC2CCCCC2)c2[nH]cnc2n1	> 100
Oc1cn(-c2ccc(Cl)cc2)nc1-c1nnc(-c2ccccc2)o1	22.9
COc1ccc(N2C(=O)/C(=C(\C)c3cc4ccccc4oc3=O)N=C2c2cc([N+](=O)[O-])ccc2Cl)cc1	39.1
O=C(O)CC(CC(=O)O)C(=O)O	> 100
CC(=O)N(C)c1ccc(Nc2cc(C)[nH]c3ccc4ncnc4c23)cc1	21.6
FC(F)(F)c1ccc(N=C/C=C(/Nc2ccc(C(F)(F)F)cc2)c2ccc(Cl)cc2)cc1	31.3
CCCCN(CCCC)CC(O)c1cc(-c2ccc(C(F)(F)F)cc2)nc(-c2ccc(C(F)(F)F)cc2)c1 (centres undefined)	> 100
CC(C)(C)[Si](OC1CC(n2cnc3c(N)ncnc32)OC1CO)(c1ccccc1)c1ccccc1 (centres undefined)	30
NS(=O)(=O)c1ccc(N=Nc2nc3[nH]c(=O)[nH]c(=O)c3[nH]2)cc1	> 100
CC1=CC(C)C/C=C/C2C3OC3(C)C(C)C3C(Cc4c[nH]c5ccccc45)NC(=O)C23C(=O)C=CC(=O)C1O (centres undefined)	8.03
O=C(O)c1ccc(Nc2c3ccccc3nc3ccccc23)cc1	> 100
Cc1cc(C)n(C(=C(C(Cl)=C(Cl)Cl)[N+](=O)[O-])n2nc(C)cc2C)n1	6.74
COc1ccc(C2COc3cc(OC(C)=O)c(OC(C)=O)cc3C2)cc1 (centres undefined)	6.3
CCOc1cc2c(OCc3ccccc3)cc3c4cc(OC)c(OC)cc4c[n+](C)c3c2cc1OC	1.43
C/C(=N\NC(=S)N1CCCCC1)c1nc2ncccc2[nH]1	30.7

Test system: OVCAR-5 ovarian
Assay: inhibition of tumour cell growth, NCI panel, 48 h

SMILES	TGI [µM]
c1nc(OCC2CCCCC2)c2[nH]cnc2n1	> 100
Oc1cn(-c2ccc(Cl)cc2)nc1-c1nnc(-c2ccccc2)o1	39.3
COc1ccc(N2C(=O)/C(=C(\C)c3cc4ccccc4oc3=O)N=C2c2cc([N+](=O)[O-])ccc2Cl)cc1	> 100
O=C(O)CC(CC(=O)O)C(=O)O	> 100
CC(=O)N(C)c1ccc(Nc2cc(C)[nH]c3ccc4ncnc4c23)cc1	29.4
FC(F)(F)c1ccc(N=C/C=C(/Nc2ccc(C(F)(F)F)cc2)c2ccc(Cl)cc2)cc1	38.3
CCCCN(CCCC)CC(O)c1cc(-c2ccc(C(F)(F)F)cc2)nc(-c2ccc(C(F)(F)F)cc2)c1 (centres undefined)	> 100
CC(C)(C)[Si](OC1CC(n2cnc3c(N)ncnc32)OC1CO)(c1ccccc1)c1ccccc1 (centres undefined)	34.8
NS(=O)(=O)c1ccc(N=Nc2nc3[nH]c(=O)[nH]c(=O)c3[nH]2)cc1	> 100
CC1=CC(C)C/C=C/C2C3OC3(C)C(C)C3C(Cc4c[nH]c5ccccc45)NC(=O)C23C(=O)C=CC(=O)C1O (centres undefined)	27.5
O=C(O)c1ccc(Nc2c3ccccc3nc3ccccc23)cc1	> 100
Cc1cc(C)n(C(=C(C(Cl)=C(Cl)Cl)[N+](=O)[O-])n2nc(C)cc2C)n1	22.8
COc1ccc(C2COc3cc(OC(C)=O)c(OC(C)=O)cc3C2)cc1 (centres undefined)	51.7
CCOc1cc2c(OCc3ccccc3)cc3c4cc(OC)c(OC)cc4c[n+](C)c3c2cc1OC	44
C/C(=N\NC(=S)N1CCCCC1)c1nc2ncccc2[nH]1	76.4

Test system: SK-MEL-2 melanoma
Assay: inhibition of tumour cell growth, NCI panel, 48 h

SMILES	TGI [µM]
c1nc(OCC2CCCCC2)c2[nH]cnc2n1	> 100
Oc1cn(-c2ccc(Cl)cc2)nc1-c1nnc(-c2ccccc2)o1	> 71.3
COc1ccc(N2C(=O)/C(=C(\C)c3cc4ccccc4oc3=O)N=C2c2cc([N+](=O)[O-])ccc2Cl)cc1	> 100
O=C(O)CC(CC(=O)O)C(=O)O	> 100
CC(=O)N(C)c1ccc(Nc2cc(C)[nH]c3ccc4ncnc4c23)cc1	23.2
FC(F)(F)c1ccc(N=C/C=C(/Nc2ccc(C(F)(F)F)cc2)c2ccc(Cl)cc2)cc1	49.6
